Consider 101 compounds from ChEMBL document CHEMBL3507680, “University of Dundee, Gates Library screen for HepG2 cell viability”.

This data set in a line: Human HepG2 cell viability assay in 384 well format. The class given is toxicity, cell-based. Also on record: dose 125 nL, time 70.5 hour; concentration not given beside the values. The following applies: HepG2 cells, read-out: Inhibition.
Regarding `Cc1cc(C(=O)NCc2ccnc(N3CCOCC3)c2)c(C)s1`, the cytotoxicity at 70.5 h is -13.9%.
In the case of `O=C(c1ccccn1)N(CCO)Cc1cc(Br)ccc1F` it was 17.2%; in that of `O=C(Cn1c(=O)n(Cc2ccco2)c2ncccc21)NC1CCCCC1`, 38.5%; in that of `CCC(CC)c1cc(CNC(=O)N2CCC[C@@H]2CO)on1`, 15.7%.
In the case of `Cc1ncccc1C(=O)NC1CC(=O)N(CC(F)(F)F)C1` (stereo unspecified) it was -0.154%; in that of `NC(=O)N1CCCN(CC(=O)NCCc2c(F)cccc2F)CC1`, -6.21%.
Take `OCCCN(CCn1cncn1)c1ccccc1`: the cytotoxicity at 70.5 h is 30.6%.
The result for `c1cncc(COCc2nnc3n2CCN(Cc2ccoc2)C3)c1` reads -9.66%.
In the case of `O=C(Nc1ccncc1)NC1CCN(c2ccccc2Cl)C1=O` (stereo unspecified) it was -5.27%; in that of `Cc1nc(C2CCCN2C(=O)c2csc3c2CCCC3)no1` (stereo unspecified), -1.72%.
In the case of `CC(C)c1nnc2n1CCN(c1nc3ccccc3o1)C2` it was -10.1%.
Regarding `Cc1cc(C)n2c(CCCNS(=O)(=O)c3ccccc3)nnc2n1`, the cytotoxicity at 70.5 h was -7.9%.
In the case of `O=C(CN1CC(c2nc(-c3ccco3)no2)C1)NCc1ccc(F)cc1`, the cytotoxicity at 70.5 h worked out at 0.546%.
Take `CC(C)N[C@@H]1CO[C@H](CNC(=O)Nc2ccccc2)[C@H]1O`: the cytotoxicity at 70.5 h is -2.59%.
With `Cc1ncc(S(C)(=O)=O)c(C2CCCNC2)n1` (stereo unspecified), the cytotoxicity at 70.5 h is 2.69%.
In the case of `Fc1cccc(CN2C[C@@H]3CN(Cc4ccccn4)C[C@@H]3C2)c1` it was -5.09%.
In the case of `CN(C)C(=O)N1CCC2(CC(=O)N(c3ccc4c(c3)OCO4)C2)C1` (stereo unspecified) it was 1.41%; in that of `Cc1noc(C)c1CCC(=O)N1CCN(Cc2cscn2)CC1`, -2.32%; in that of `CC(NCCN1CCC(N(C)C)CC1)c1ccc(F)cc1N(C)C` (stereo unspecified), 15%.
In the case of `CC(C)(NC(=O)c1scnc1Cl)c1ccccc1` it was -12.8%.
Take `NS(=O)(=O)c1ccc(F)c(C(=O)NCCSc2ccccn2)c1`: the cytotoxicity at 70.5 h is -4.06%.
In the case of `Cc1cccc(S(=O)(=O)N2CCCc3c(c(=O)n(C)n3C)C2)c1` it was -9.39%.
The result for `Cc1ccc(S(=O)(=O)N2CCC(O)(CN(C)C)C2)cc1` (stereo unspecified) reads -4.32%; that for `Cn1ccnc1CN(CCO)C(=O)C1CCN(C(=O)C2CC2)CC1`, 0.876%; that for `Cn1nc(C(=O)NCc2cccs2)c2c1CCS(=O)(=O)C2`, -6.12%.
The result for `CN1CCN(C(=O)C2(S(C)(=O)=O)CCCC2)Cc2ccccc21` reads -13.4%; that for `Cc1ccc(NC(=O)Nc2cnc(N3CCN(C)CC3)nc2)cc1`, 27.1%; that for `O=C(CN1CCCC(Cn2cncn2)C1)NCCC1=CCCCC1` (stereo unspecified), 7.12%.
Turning to `CCC(CO)N(Cc1ccc(C(=O)O)cc1)Cc1ccsc1` (stereo unspecified), the cytotoxicity at 70.5 h is -5.5%.
In the case of `O=C1CSCN1CC(=O)N1CCCC1c1nc2ccccc2s1` (stereo unspecified) it was 2.26%; in that of `CC(=O)N1CCC2(CC1)CN(CC1CC1)c1ccc(F)cc12`, 1.47%; in that of `COC(=O)[C@H](CC(C)C)NC(=O)c1snnc1-c1ccc(OC)cc1`, 10.9%.
In the case of `Cc1cc(C(=O)N(C)CCN(C)C(=O)OC(C)(C)C)oc1C`, the cytotoxicity at 70.5 h is -2.24%.
The result for `O=C(c1cccc(OCc2cscn2)c1)N1CCOCC1` reads 0.0866%; that for `Cc1ccc(S(C)(=O)=O)cc1C(=O)N(C)Cc1ccco1`, -3.41%.
The result for `Cc1noc(C)c1CN(C)C(=O)c1ccc2c(c1O)OC(C)(C)C2` reads 1.38%; that for `CC(NC(=O)Cn1cccn1)c1cccnc1` (stereo unspecified), -4.88%; that for `Cc1cc(C)c2nc(CN3CCCC(c4cc[nH]n4)C3)cc(O)c2c1` (stereo unspecified), -2.87%.
In the case of `c1ccc(-c2nc(CN3CCCC(Cn4cncn4)C3)no2)cc1` (stereo unspecified), the cytotoxicity at 70.5 h turned out to be 2.09%.
In the case of `COc1c(CNC2CCCOc3ccccc32)c(C)nn1C` (stereo unspecified) it was -9.23%.
Consider `O=C1CC(N(C(=O)CCc2cc(F)ccc2F)C2CC2)C(=O)N1` (stereo unspecified), for which the cytotoxicity at 70.5 h was -7.39%.
For the compound `COC(=O)c1ccoc1CN(C)CC(=O)N(C)C`, the cytotoxicity at 70.5 h is -8.41%.
On to `Cc1noc(C)c1CN1CCCC2(CCN(CC3CCCC3)C2)C1` (stereo unspecified), for which the cytotoxicity at 70.5 h was -3.39%.
In the case of `COc1ccc(CN2C[C@H](OCC3CCOCC3)[C@H]3COC[C@H]32)cc1` it was -9.69%; in that of `CNC(=O)[C@H]1C[C@@H]2CN(S(=O)(=O)c3cccc(F)c3)C[C@@H]2N1C`, 1.47%; in that of `C[C@H](N)C(=O)N1CCC(c2[nH]ncc2-c2ccccc2)CC1`, -4.88%.
With `CN1N=C(C(=O)N2CCCC(n3ccnc3)C2)CCC1=O` (stereo unspecified), the cytotoxicity at 70.5 h was -7.88%.
`O=C(c1ccc2c(c1)[nH]c(=O)n2C1CCCC1)N1CC(O)C1`: the cytotoxicity at 70.5 h was -3.54%.
In the case of `Cc1cccc(CNC(=O)CCc2c(C)nc3cc(O)nn3c2C)n1` it was -14%.
In the case of `CC(C)(C)NC(=O)CNc1ccc(Br)cn1`, the cytotoxicity at 70.5 h is 0.762%.
In the case of `CCn1nc(C)cc1C(=O)NCc1cccnc1N(C)C` it was 2.09%; in that of `CNC(=O)CCNC(=O)CCc1c(C)nc2cc(O)nn2c1C`, -4.97%.
Take `CCn1nc(CC(C)C)cc1C(=O)NCCCN1CCOCC1`: the cytotoxicity at 70.5 h is -0.263%.
In the case of `CN1CCN(C2CCN(CCCOc3ccc(F)cc3)CC2)C1=O` it was 19.6%; in that of `c1ccc(CN2CCc3ncnc(-c4ccsc4)c3CC2)nc1`, -12.4%.
As to `COc1ccccc1N1CC(NC(=O)Cn2cc(C)nn2)CC1=O` (stereo unspecified), the cytotoxicity at 70.5 h is -7.03%.
With `CNC(=O)c1ccc(=O)n(Cc2csc(C(C)(C)C)n2)c1`, the cytotoxicity at 70.5 h was -18.4%.
In the case of `CCc1ncc2c(n1)CN(C(=O)CC(C)NC(C)=O)C2` (stereo unspecified) it was -5.94%; in that of `Cc1cc(C(=O)NCc2csc(N(C)C)n2)c2ccc(C)c(C)c2n1`, 0.264%.
On to `O=C(CN1CCc2cncnc2C1)NC(c1ccccc1)C1CC1` (stereo unspecified), for which the cytotoxicity at 70.5 h is -2.84%.
For `Cc1ccc(C2CCCCCN2CCCS(C)(=O)=O)o1` (stereo unspecified), the cytotoxicity at 70.5 h is -10.5%.
The result for `COc1ccc(C(=O)Nc2cccc(C(N)=O)c2)c(OC)n1` reads 9.82%.
In the case of `CCOc1ccnc(N2CCCN(c3nc(CC)ns3)CC2)n1`, the cytotoxicity at 70.5 h was -2.91%.
In the case of `NC(=O)NC(=O)C(c1ccccc1)N1CCN(Cc2ccsc2)CC1` (stereo unspecified) it was -7.31%; in that of `CC(C)Sc1ccc(C(C)NC(=O)Cn2cccnc2=O)cc1` (stereo unspecified), -15.1%.
The result for `OC[C@H]1CN(Cc2c(Cl)cncc2Cl)C[C@H]1CN1CCCCCC1` reads -1.47%.
In the case of `O=S(=O)(CC1CCCO1)Nc1cc(Cl)ccc1-n1cccn1` (stereo unspecified), the cytotoxicity at 70.5 h was 2.79%.
The result for `O=C(c1ccccn1)N1Cc2ccccc2OC2(CCOCC2)C1` reads -0.0226%; that for `Cc1cc(N2CCCC2c2nc(C)cc(CCC(=O)O)n2)ncn1` (stereo unspecified), -9.37%; that for `CCCn1cc(-c2cc(C(=O)N(C)C)c3cccc(C)c3n2)cn1`, -7.56%.
The result for `O=C(c1cnccn1)N1CCC(Oc2ncccc2Cl)CC1` reads 4.06%.
In the case of `COCCO[C@H]1COCCN(Cc2ccc(OC)cc2)C1` it was 8.32%.
Take `COc1ccc(CCC2CCCCN2)cc1OC` (stereo unspecified): the cytotoxicity at 70.5 h amounted to 19.8%.
In the case of `Cn1c(CCNc2nccnc2C#N)nc2cc(Cl)ccc21` it was -0.473%; in that of `Cc1ccc(CC(=O)N2CCN(CC(C)O)CC2)cn1` (stereo unspecified), -5.27%; in that of `Cc1cnn(CC2CCCN2C(=O)c2cccc(-n3ccc(C)n3)c2)c1` (stereo unspecified), -7.87%.
As for `CC(C)CNC(=O)c1cn(C)c(=O)c2ccccc12`, the cytotoxicity at 70.5 h was found to be 7.18%.
In the case of `COCc1noc(CCNC(=O)c2ccc(C3CCCO3)s2)n1` (stereo unspecified) it was 8.28%; in that of `CCS(=O)(=O)NCC1OCCc2cn(CCOC)nc21` (stereo unspecified), -3.26%.
In the case of `CCC(CC)C(=O)NCc1cnn(CC)c1` it was -13.4%; in that of `CC1N(CC2CC2)C(=O)COC12CCN(C(=O)c1cccs1)CC2` (stereo unspecified), -5.2%; in that of `O=C(NCc1nncn1C1CCCCC1)C1CNCCO1` (stereo unspecified), -6.16%.
Regarding `COCCn1cc(NC(=O)NCC(c2cccc(F)c2)N(C)C)cn1` (stereo unspecified), the cytotoxicity at 70.5 h was -2.22%.
Take `O[C@@H]1CN(Cc2ccncc2)C[C@H]1Oc1ccccc1`: the cytotoxicity at 70.5 h was -5.71%.
On to `Cc1nc(C)n(CC2CCCN2Cc2ccn(-c3ccccc3)n2)n1` (stereo unspecified), for which the cytotoxicity at 70.5 h came out at 3.67%.
The result for `COCCc1nc(CSc2ccncc2)n(C)n1` reads 1.99%; that for `CCOc1cc2c(cc1CN1CCC3(CC1)CNC(=O)C3)CCC2`, 23.3%; that for `CC(C)c1ncc(CN2CCCC(CO)C2)cn1` (stereo unspecified), -8.2%.
In the case of `CC(C)c1nc(N2CCN3CCCC3C2)c2cnn(C)c2n1` (stereo unspecified) it was 1.45%.
With `Cc1nnc2n1CCN(C(=O)c1cnc3c(cnn3CC(C)C)c1)C2`, the cytotoxicity at 70.5 h was determined as 25.8%.
With `c1cnc(N2CCCn3nnc(COCC4CC4)c3C2)nc1`, the cytotoxicity at 70.5 h is -1.29%.
In the case of `Cn1nc(CN2CCCCC2)c2c1CN(C(=O)c1cccc(C#N)c1)C2` it was 15.7%.
The result for `O=C(COC[C@@H]1CC[C@H]2[C@H](CCN2Cc2ccco2)O1)N1CCCC1` reads 24.3%.
In the case of `Cc1cccc(N2CCOCC3(C2)CN(c2ccoc2)C(=O)CO3)n1` (stereo unspecified) it was 6.55%.
Turning to `Cn1cncc1CN1CCOC(Cc2ccccc2)C1` (stereo unspecified), the cytotoxicity at 70.5 h is -8.78%.
The result for `CC(C)(C)c1noc(CCCC(=O)N2CCNC(=O)C2)n1` reads -16.6%; that for `CCC(=O)NCCCn1c(-c2cccnc2C)cc2cccnc21`, -1.81%; that for `COc1ncc(-c2cc(-c3ccn(C)c3)nc(N)c2C#N)cn1`, 7.14%.
Consider `CC(C(=O)O)N1CCc2onc(-c3ccc(F)c(F)c3)c2C1` (stereo unspecified), for which the cytotoxicity at 70.5 h was -6.87%.
In the case of `O=C(N[C@]12CC1CN(C(=O)c1ccco1)C2)c1ccoc1` (stereo partly specified) it was -7.38%; in that of `CCCN1CCC(Cc2noc(-c3cc4cccnc4nc3C)n2)CC1`, 0.578%.
